ChEMBL document CHEMBL5727650, “Heteroaryl substituted aminopyridine compounds” (2020)
pIC50: −log10 of the molar value.

Target: T1, Interleukin-1 receptor-associated kinase 4 (Homo sapiens, UniProt Q9NWZ3)
T1 sequence (Q9NWZ3 whole entry): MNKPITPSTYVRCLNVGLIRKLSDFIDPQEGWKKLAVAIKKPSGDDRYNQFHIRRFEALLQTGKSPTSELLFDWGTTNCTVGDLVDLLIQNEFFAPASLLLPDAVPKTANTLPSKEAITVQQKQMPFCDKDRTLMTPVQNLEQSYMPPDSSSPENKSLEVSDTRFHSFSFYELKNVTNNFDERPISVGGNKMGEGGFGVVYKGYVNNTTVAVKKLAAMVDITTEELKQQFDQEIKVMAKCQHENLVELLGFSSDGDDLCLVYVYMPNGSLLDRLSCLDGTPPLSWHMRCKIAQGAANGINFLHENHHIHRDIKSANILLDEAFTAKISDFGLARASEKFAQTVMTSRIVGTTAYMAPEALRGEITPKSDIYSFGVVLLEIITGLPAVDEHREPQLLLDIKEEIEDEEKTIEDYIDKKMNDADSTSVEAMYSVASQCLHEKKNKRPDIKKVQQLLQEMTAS
Experiment: IRAK4 Inhibition Assay: The assays were performed in U-bottom 384-well plates. The final assay volume was 30 μL prepared from 15 μL additions of enzyme and substrates (fluoresceinated peptide and ATP) and test compounds in assay buffer (20 mM HEPES pH 7.2, 10 mM MgCl2, 0.015% Brij 35 and 4 mM DTT). The reaction was initiated by the combination of IRAK4 with substrates and test compounds. The reaction mixture was incubated at room temperature for 60 min. and terminated by adding 45 μL of 35 mM EDTA to each sample. The reaction mixture was analyzed on the Caliper LABCHIP® 3000 (Caliper, Hopkinton, Mass.) by electrophoretic separation of the fluorescent substrate and phosphorylated product. Inhibition data were calculated by comparison to no enzyme control reactions for 100% inhibition and vehicle-only reactions for 0% inhibition. The final concentrations of reagents in the assays are ATP, 500 μM; FL-IPTSPITTTYFFFKKK peptide 1.5 μM; IRAK4, 0.6 nM; and DMSO, 1.6%.

| SMILES | pIC50 |
| --- | --- |
| CC(C)(F)CNc1cc(-c2cnn3cc(C#N)cnc23)ncc1C(=O)NC[C@@H](F)C(C)(C)O | 7.92 |
| CC(C)(O)[C@H](F)CNC(=O)c1cnc(-c2cnn3cc(C#N)cnc23)cc1Nc1ccc(C(N)=O)cc1 | 9.00 |
| CC(C)(O)[C@H](F)CNC(=O)c1cnc(-c2cnn3cc(Cl)cnc23)cc1Nc1ccn(CC(F)F)c1 | 8.70 |
| CC(C)(O)[C@H](F)CNC(=O)c1cnc(-c2cnn3cc(C#N)cnc23)cc1Nc1ccn(CC(F)F)c1 | 8.70 |
| COC(C)(C)[C@H]1CC[C@H](NC(=O)c2cnc(-c3cnc4cc(Cl)cnn34)cc2NC2COC2)CC1 | 8.15 |
| CC(C)(O)[C@H](F)CNC(=O)c1cnc(-c2cnn3cc(C#N)cnc23)cc1NC1CCC1 | 8.70 |
| CC(C)(O)[C@H](F)CNC(=O)c1cnc(-c2cnn3cc(Cl)cnc23)cc1NC12CC(C1)C2 | 8.05 |

Further compounds by rising pIC50, results first:

| pIC50 | SMILES |
| --- | --- |
| 7.82 | CC(=O)N[C@H]1CC[C@H](NC(=O)c2cnc(-c3cnn4cc(C#N)cnc34)cc2NC(C)C)CC1 |
| 7.89 | CC(C)(O)[C@H](F)CNC(=O)c1cnc(-c2cnn3cc(C#N)cnc23)cc1NC1CCC(F)(F)C1O (some centres not stated) |
| 8.30 | CCCNc1cc(-c2cnn3cc(Cl)cnc23)ncc1C(=O)NC[C@@H](F)C(C)(C)O |
| 8.70 | CC1(Nc2cc(-c3cnc4cc(Cl)cnn34)ncc2C(=O)NC[C@H](F)C(C)(C)O)CC1 |
| 8.70 | CC(C)(C)Nc1cc(-c2cnc3cc(C#N)cnn23)ncc1C(=O)NC[C@@H](F)C(C)(C)O |
